In one series the test system is NCI-H460. The series is described as follows: Growth inhibition of human NCI-H460 cells. The conditions noted are these: pooled result: one value given for 3 cell lines, strains, targets or settings. The format is functional.
The test system of the next series is K562. Description: Anticancer activity against human K562 cells. Type of series: functional, cell-based.
The test system of series [1] is MCF7. The series is described as follows: Anticancer activity against human MCF7 cells. The format is functional, cell-based.
Series [2] concerns P388. Description: Cytotoxicity against doxorubicin resistant mouse P388 cells assessed as reduction in cell viability. The format is functional, cell-based.
Series [3] deals with A549. The series is described as follows: Cytotoxicity against human A549 cells assessed as reduction in cell viability. The format is functional, cell-based.
Series [4] relates to P388. Description: Anticancer activity against mouse P388 cells. The format is functional, cell-based.
The test system of series [5] is HT-29. The series is described as follows: Cytotoxicity against human HT-29 cells assessed as reduction in cell viability. Type of series: functional, cell-based.
The test system of series [6] is P388. The series is described as follows: Anticancer activity against doxorubicin resistant mouse P388 cells. The format is functional, cell-based.
Series [7] concerns HT-29. The series is described as follows: Anticancer activity against human HT-29 cells. Type of series: functional, cell-based.
A further series relates to HCT-8. Description: Anticancer activity against human HCT8 cells. Type of series: functional, cell-based.
In series [8] the test system is Lewis lung carcinoma cell line. The series is described as follows: Anticancer activity against mouse LLC cells. The format is functional, cell-based.
The nature of series [9]: Toxicity in mouse xenografted with human CX-1 cells. As to conditions: in vivo. For orientation: A xenograft is tissue or cells of one species grown in another, often human tumour cells in immunodeficient mice.
The nature of series [10]: Toxicity in mouse xenografted with human MB-9812 cells.
The subject of series [11] is B16-F10. The series is described as follows: Anticancer activity against mouse B16F10 cells. Type of series: functional, cell-based.
The test system of series [12] is B16-F10. The series is described as follows: Cytotoxicity against mouse B16F10 cells assessed as reduction in cell viability. The format is functional, cell-based.
In series [13] the test system is P388. The series is described as follows: Cytotoxicity against mouse P388 cells assessed as reduction in cell viability. The format is functional, cell-based.
Series [14] concerns A549. Description: Anticancer activity against human A549 cells. Type of series: functional, cell-based.
The subject of another series is HCT-116. The series is described as follows: Antiproliferative activity against human HCT116 cells after 48 hrs by MTT assay. The conditions noted are these: HCT-116, 48 h. Type of series: functional, cell-based. A general note: Formazan colour is commonly taken as a measure of viable cells.
Another series has as its system PANC-1. Description: Antiproliferative activity against human PANC1 cells after 48 hrs by MTT assay. Type of series: functional, cell-based. The conditions noted are these: PANC-1, 48 h.
Series [15] has as its system HeLa. The series is described as follows: Antiproliferative activity against human HeLa cells after 48 hrs by MTT assay. Type of series: functional, cell-based.
Series [16] has as its system A549. Description: Antiproliferative activity against human A549 cells after 48 hrs by MTT assay. Type of series: functional, cell-based. As to conditions: A549, 48 h.
For the next series, the target named is Tubulin. The series is described as follows: Inhibition of tubulin polymerization (unknown origin). Type of series: protein-complex assay, Homo sapiens.
The test system of the next series is MCF-10A. Description: Antiproliferative activity against human MCF10A cells by CCK8 assay. Type of series: cell-based.
The next series concerns the target Histone deacetylase. The series is described as follows: Inhibition of HDAC (unknown origin). The format is protein assay, Homo sapiens.
The subject of series [17] is HeLa. The series is described as follows: Antiproliferative activity against human HeLa cells by CCK8 assay. The format is functional, cell-based.
Series [18] deals with A549. Description: Antiproliferative activity against human A549 cells by CCK8 assay. The format is functional, cell-based.
Series [19] relates to MCF7. Description: Antiproliferative activity against human MCF7 cells by CCK8 assay. Type of series: functional, cell-based.
The subject of series [20] is HepG2. The series is described as follows: Antiproliferative activity against human HepG2 cells by CCK8 assay. The format is functional, cell-based.
The subject of another series is PC-3. The series is described as follows: Antiproliferative activity against human PC3 cells by CCK8 assay. Type of series: functional, cell-based.
Another series concerns MDA-MB-231. The series is described as follows: Growth inhibition of human MDA-MB-231 cells after 48 hrs by SRB assay. Type of series: functional. As to conditions: MDA-MB-231, 48 h.
The subject of the next series is SiHa. The series is described as follows: Growth inhibition of human SiHa cells after 48 hrs by SRB assay. The format is functional. On the technique in general: In SRB staining, fixed cells bind dye roughly in proportion to their protein.
In series [21] the test system is HepG2. The series is described as follows: Anticancer activity against human HepG2 cells by MTT assay. Type of series: functional, cell-based.
The next series deals with HL-60. Description: Anticancer activity against human HL60 cells by MTT assay. The format is functional, cell-based.
Series [22] deals with HT-29. The series is described as follows: Anticancer activity against human HT-29 cells by MTT assay. The format is functional, cell-based.

From ChEMBL document CHEMBL4613209, “Quinolone hybrids and their anti-cancer activities: An overview” (Eur J Med Chem, 2019) come the findings set out here.

pIC50: −log10 of the molar value. In brackets after ≈: the same amount, converted by molar mass. Bounds are passed on as bounds.

Take `O=c1[nH]c2ccccc2c2[nH]cc(-c3ccccc3)c12`: growth in the series on NCI-H460 was halved (GI50) at 18.2 µM.
Take `O=C(O)c1cn([C@@H]2O[C@H](CO)[C@@H](O)[C@H]2O)c2ccc(Oc3ccccc3)cc2c1=O`: the pIC50 (in general, −log10 of the IC50, conventionally taken in molar units) in the series on K562 is 3.70 to 4.19.
With `CCC[C@H](N)C(=O)NC1CCN(C2C(F)=Cc3c4n(cc(C(=O)O)c3=O)-c3ccccc3OC42)C1` (stereo partly specified), the pIC50 (with MCF7 [1]; in the series with P388 [4]; with P388 [6]; in the series on HT-29 [7]; in the series with HCT-8; in series [8]) was 6.31 to 7.52 throughout. The pIC50 with B16-F10 [11] and in the series with A549 [14] was 6.31 to 7.52 throughout. In addition, the IC50 with P388 [2], in the series on A549 [3], with HT-29 [5], with B16-F10 [12] and in the series on P388 [13] was 0.01 to 1 µg/mL (≈ 0.0207 to 2.07 µM) each time. In addition, the LD50 in [9] and in series [10] was 59.6 mg/kg throughout.
Take `CCOC(=O)c1cn([C@@H]2O[C@H](CO)[C@@H](O)[C@H]2O)c2ccc(Nc3ccccc3)cc2c1=O`: in the series on K562, the pIC50 is 3.70 to 4.19.
Take `CCCN(CCC)Cc1cn(-c2cc3c(cc2F)c(=O)c(C(=O)NO)cn3C2CC2)nn1`: the pIC50 with HCT-116, in the series on PANC-1, in the series on HeLa [15] and with A549 [16] was less than 5.00 each time.
Consider `C[C@H]1COc2c(N3CCN(C)CC3)c(F)cc3c(=O)c(C(=O)OCc4cn(CCCCCCC(=O)NO)nn4)cn1c23`, for which the pIC50 was 5.20 to 5.75 on Tubulin; less than 4.00 in the series on MCF-10A; 6.07 to 7.68 against Histone deacetylase; 4.89 to 6.52 with HeLa [17]; 4.89 to 6.52 with A549 [18]; 4.89 to 6.52 in the series on MCF7 [19]. Also, the pIC50 in the series on HepG2 [20] and with PC-3 was 4.89 to 6.52 in each case.
With `C[C@H]1COc2c(N3CCN(C)CC3)c(F)cc3c(=O)c(C(=O)NCc4cn(CCCCCCCC(=O)NO)nn4)cn1c23`, the pIC50 at Tubulin is 5.20 to 5.75; in the series with MCF-10A it was less than 4.00; against Histone deacetylase it was 6.07 to 7.68; with HeLa [17] it was 4.89 to 6.52; in the series with A549 [18], 4.89 to 6.52; in the series with MCF7 [19] it was 4.89 to 6.52. Moreover, the pIC50 in the series on HepG2 [20] and in the series with PC-3 was 4.89 to 6.52 throughout.
Turning to `C[C@H]1COc2c(N3CCN(C)CC3)c(F)cc3c(=O)c(C(=O)OCc4cn(CCCCCC(=O)NO)nn4)cn1c23`, the pIC50 was 5.20 to 5.75 at Tubulin; less than 4.00 in the series on MCF-10A; 6.07 to 7.68 on Histone deacetylase; 4.89 to 6.52 in the series on HeLa [17]; 4.89 to 6.52 in the series with A549 [18]; 4.89 to 6.52 in the series with MCF7 [19]. Besides, the negative logarithm of the IC50 (pIC50) with HepG2 [20] and in the series with PC-3 was 4.89 to 6.52 throughout.
For `CCn1cc(C(=O)O)c(=O)c2cnc(N3CCN(C(=O)CCSc4nnnn4Cc4ccccc4)CC3)nc21`, the GI50 in the series with MDA-MB-231 and in the series on SiHa was not above 0.1 µM throughout.
Regarding `O=c1[nH]c2ccccc2c2[nH]c3ccccc3c12`, in the series with NCI-H460, it took 19 µM to inhibit growth by half (GI50).
`O=C(NO)c1cn(C2CC2)c2cc(-n3cc(CN4CCCCC4)nn3)c(F)cc2c1=O`: the pIC50 in the series with HCT-116, with PANC-1, in the series on HeLa [15] and in the series with A549 [16] was less than 5.00 throughout.
Take `O=C(NO)c1cn(C2CC2)c2cc(-n3cc(CN4CCOCC4)nn3)c(F)cc2c1=O`: the pIC50 in the series with HCT-116, in the series on PANC-1, in the series with HeLa [15] and with A549 [16] was less than 5.00 throughout.
As to `O=c1[nH]c2ccc(Cl)cc2c2[nH]c3ccccc3c12`, the GI50 (usually the concentration at which growth is held to half of that of the control) in the series on NCI-H460 was 19 µM.
As for `CCOC(=O)c1cn(Cc2cn(-c3ccc(C)cc3)nn2)c2ccc(Cl)cc2c1=O`, the pIC50 with HepG2 [21], in the series with HL-60 and with HT-29 [22] was 4.05 to 4.88 throughout.
For the molecule `C[C@H]1COc2c(N3CCN(C)CC3)c(F)cc3c(=O)c(C(=O)NCc4cn(CCCCCCC(=O)NO)nn4)cn1c23`, the pIC50 on Tubulin was 5.20 to 5.75; in the series on MCF-10A, less than 4.00; against Histone deacetylase, 6.07 to 7.68; in the series on HeLa [17] it was 5.31 to 6.52; in the series with A549 [18] it was 5.31 to 6.52; with MCF7 [19] it was 5.31 to 6.52. Further, the pIC50 in the series on HepG2 [20] and in the series with PC-3 was 5.31 to 6.52 throughout.
Take `CN(Cc1cnc2nc(N)nc(N)c2n1)c1ccc(C(=O)N[C@@H](CCC(=O)O)C(=O)O)cc1` [METHOTREXATE]: the LD50 in series [9] and in [10] was 5 mg/kg throughout.
